Measurements as given in ChEMBL document CHEMBL1201862, “PubChem BioAssay data set” (2004).
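Five concentrations, 48 hours, 96-well plates. GI50 is the concentration that inhibits growth by half.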 Calls of active or inactive are those of the source. Cut-off read from the data, not from the text of the source: active = GI50 up to about 1.1 µM and inactive = higher. Where a SMILES comes first, the peptide text is derived from it. Bridges are numbered along the chain shown (N, C = ends). [ ]: non-standard residue; d: D form. The star is where a group is joined. ξ: configuration not given here. X28 = O=C(/C=C/C=C/C=C/C=C/C=C/C(=O)*)NC1=C(O)CCC1=O; NMeA = CN[C@@H](C)C(=O)O; ξF = NC(Cc1ccccc1)C(=O)O; ξA = CC(N)C(=O)O

What was measured:
Experiment in all cases: DTP human tumour cell line panel, 48 h
[1] = system: T47D
[2] = system: U-251
[3] = system: Malme-3M
[4] = system: PC-3
[5] = system: IGROV-1
[6] = system: NCI-H522
[7] = system: HOP-92
[8] = system: RXF 393
[9] = system: SW-620
[10] = system: HCC 2998
[11] = system: MCF7
[12] = system: SK-MEL-2
[13] = system: CCRF-CEM
[14] = system: UACC-62
[15] = system: NCI-H460
[16] = system: ACHN
[17] = system: TK-10
[18] = system: OVCAR-4
[19] = system: HOP-62
[20] = system: SNB-19

Measured: GI50

CC1NC(=O)[C@H](C)N(C)C(=O)[C@@H]2CCCN2C(=O)[C@@H](NC(=O)C(Cc2ccccc2)NC(=O)/C=C/C=C/C=C/C=C/C=C/C(=O)NC2=C(O)CCC2=O)COC(=O)[C@@H]2CCCN2C1=O (some centres not stated) (X28-[ξF]SP[NMeA][ξA]P; ester 2-C)
inactive: [1] > 100 µM | [2] > 100 µM | [3] > 100 µM | [4] > 100 µM | [5] > 100 µM | [6] > 100 µM | [7] 78.2 µM | [8] 35.5 µM | [9] > 100 µM | [10] > 100 µM | [11] > 100 µM | [12] > 100 µM | [13] > 100 µM | [14] > 100 µM | [15] > 100 µM | [16] > 100 µM | [17] 30.3 µM | [18] > 100 µM | [19] 48.1 µM | [20] > 100 µM

N#Cc1ccc(NC(=O)C(CC(=O)OCc2ccccc2)NC(=O)OCc2ccccc2)cc1 (configuration not stated)
inactive: [1] > 10 µM | [2] > 10 µM | [3] 5.74 µM | [4] > 10 µM | [5] > 10 µM | [6] > 10 µM | [7] > 10 µM | [8] > 10 µM | [9] > 10 µM | [10] 93.3 µM | [11] > 10 µM | [12] > 100 µM | [13] > 10 µM | [14] > 10 µM | [15] > 10 µM | [16] > 10 µM | [17] > 10 µM | [18] > 10 µM | [19] > 10 µM | [20] > 10 µM

C=C(C)[C@@H]1CCC2=C[C@H](C/C(C)=C\C3=CC(C)=C(O3)[C@H]1O)OC2=O
inactive: [1] 41.9 µM | [2] 49.8 µM | [3] > 100 µM | [4] 73.8 µM | [5] 93.1 µM | [6] 68.5 µM | [7] 56.4 µM | [8] 35.6 µM | [9] > 100 µM | [10] > 100 µM | [11] 71.1 µM | [12] > 100 µM | [13] > 100 µM | [14] 93.5 µM | [15] > 100 µM | [16] 57.5 µM | [17] 71 µM | [18] 60 µM | [20] > 100 µM

COc1cc(/C=C/C=C2\CC/C(=C\C=C\c3ccc(O)c(OC)c3)C2=O)ccc1O
active: [13] 0.305 µM
inactive: [1] > 100 µM | [2] > 100 µM | [3] > 85.7 µM | [4] > 100 µM | [5] > 100 µM | [6] 1.45 µM | [7] > 100 µM | [8] 3.87 µM | [9] > 100 µM | [10] > 100 µM | [11] > 100 µM | [12] > 100 µM | [14] > 100 µM | [15] > 100 µM | [16] > 100 µM | [17] > 100 µM | [18] > 60.1 µM | [19] > 100 µM | [20] > 100 µM

CCOc1ccc(NC(=O)C(=O)C(/C(=N/N)C(=O)OC)c2nc3ccc([N+](=O)[O-])cc3nc2O)cc1 (configuration not stated)
inactive: [1] > 100 µM | [2] > 100 µM | [3] > 100 µM | [4] > 100 µM | [5] > 100 µM | [6] > 100 µM | [7] > 100 µM | [8] 36.1 µM | [9] > 100 µM | [10] > 100 µM | [11] > 100 µM | [12] > 100 µM | [13] > 100 µM | [14] > 100 µM | [15] > 100 µM | [16] > 100 µM | [17] > 100 µM | [18] > 100 µM | [19] > 100 µM | [20] > 100 µM

NS(=O)(=O)c1ccc(NNC(=O)c2cccc3c(=O)c4ccccc4[nH]c23)cc1
inactive: [1] 48.4 µM | [2] 55.1 µM | [3] 78.3 µM | [4] 65.6 µM | [5] 58.5 µM | [6] 41.4 µM | [7] 34.4 µM | [8] 60.4 µM | [9] 72.6 µM | [10] > 100 µM | [11] 34 µM | [12] > 100 µM | [13] 46.1 µM | [14] 88.5 µM | [15] 87.7 µM | [16] 91.6 µM | [17] > 100 µM | [18] 61.8 µM | [19] > 100 µM | [20] > 100 µM

C=CCN1C(=O)/C(=C/c2ccco2)N=C1SC/C=C/C
inactive: [1] 43.6 µM | [2] 49.2 µM | [3] 44.4 µM | [4] 39 µM | [5] 51.2 µM | [6] 34 µM | [7] 21.6 µM | [8] 29.2 µM | [9] 43.9 µM | [10] 93.8 µM | [11] 18.6 µM | [12] 29.4 µM | [13] 45.9 µM | [14] 25.9 µM | [15] 57.9 µM | [16] 35.4 µM | [17] > 100 µM | [18] 60.5 µM | [19] > 100 µM | [20] 71.3 µM

CC[C@H]1CN(C)[C@H]2Cc3c([nH]c4ccccc34)C(=O)C[C@H]1C2C(=O)OC (some centres not stated)
inactive: [1] > 100 µM | [2] > 100 µM | [3] > 100 µM | [4] > 100 µM | [5] > 100 µM | [6] > 100 µM | [7] > 100 µM | [8] > 100 µM | [9] > 100 µM | [10] > 100 µM | [11] > 100 µM | [12] > 100 µM | [13] 97.5 µM | [14] > 100 µM | [15] > 100 µM | [16] > 100 µM | [17] > 100 µM | [18] > 100 µM | [19] > 100 µM | [20] > 100 µM

CN(CCNC(=S)c1cn(C)c2c1ccc1ccccc12)CCNC(=S)c1cn(C)c2c1ccc1ccccc12
inactive: [1] 3.74 µM | [2] 23.7 µM | [3] > 100 µM | [4] 28.6 µM | [5] 29.4 µM | [6] 51.2 µM | [7] 5.64 µM | [8] 2.05 µM | [9] > 100 µM | [10] 16.6 µM | [11] 33.5 µM | [12] > 100 µM | [13] 17.9 µM | [14] > 100 µM | [15] 71.8 µM | [16] > 100 µM | [17] > 100 µM | [18] 11.3 µM | [19] > 100 µM | [20] > 100 µM

NP(=O)(Oc1c2occc2cc2ccc(=O)oc12)N(CCCl)CCCl (configuration not stated)
active: [8] 0.0611 µM
inactive: [1] 48.5 µM | [2] > 100 µM | [3] > 100 µM | [4] > 100 µM | [5] > 100 µM | [6] > 100 µM | [7] 49.1 µM | [9] > 100 µM | [10] > 100 µM | [11] 51.1 µM | [12] > 100 µM | [13] 45.2 µM | [14] > 100 µM | [15] 68.1 µM | [16] 83.2 µM | [17] > 100 µM | [18] > 100 µM | [19] > 100 µM | [20] > 100 µM

c1c[nH]c(C23C4C5C6C4C2C6C53)n1 (configuration not stated)
inactive: [1] > 100 µM | [2] > 100 µM | [3] > 100 µM | [4] > 100 µM | [5] > 100 µM | [6] > 100 µM | [7] > 100 µM | [8] > 100 µM | [9] > 100 µM | [10] > 100 µM | [11] > 100 µM | [12] > 100 µM | [13] > 100 µM | [14] > 100 µM | [15] > 100 µM | [16] > 100 µM | [17] > 100 µM | [18] 30.6 µM | [19] > 100 µM | [20] > 100 µM

Nc1nc2ccc(Sc3ccc4nc(N)[nH]c(=O)c4c3)cc2c(=O)[nH]1
inactive: [1] > 100 µM | [2] 42.5 µM | [3] > 100 µM | [4] > 100 µM | [5] 61.1 µM | [6] > 100 µM | [7] > 100 µM | [8] > 100 µM | [9] > 100 µM | [10] > 100 µM | [11] > 100 µM | [12] > 100 µM | [13] > 100 µM | [14] > 100 µM | [15] > 100 µM | [16] > 100 µM | [17] > 100 µM | [18] > 100 µM | [20] > 100 µM

CCOC(=O)NC(Nc1ccc(F)cc1)(C(=O)OCC)C(F)(F)F (configuration not stated)
active: [12] 0.982 µM | [14] 0.121 µM
inactive: [1] 3.72 µM | [2] > 100 µM | [3] > 100 µM | [4] 4.15 µM | [6] > 100 µM | [7] > 100 µM | [8] > 100 µM | [9] 1.22 µM | [10] > 100 µM | [11] > 66.7 µM | [13] 3.28 µM | [15] > 21.7 µM | [16] 2.62 µM | [17] > 24.7 µM | [18] > 50.8 µM | [19] > 100 µM | [20] > 100 µM
